Test results: patent US20140256660A1, “ANTIBIOTIC CONJUGATES LINKED WITH STEROID DRUGS” (Allergan, Inc., priority 2013, published 2014)

Tested on: human recombinant carboxylesterases
Test: In vitro metabolic stability (rate of metabolite formation) in human recombinant carboxylesterases
Assay type: in vitro ADME
Details: human recombinant carboxylesterases 0.1 mg/mL, 1 μM test compound, pH 6.0, 37° C.
Protocol: Dutch Belted rabbits were euthanized with an overdose of sodium pentobarbital. The corneas were collected and homogenized in ice-cold potassium chloride solution (pH=7.4). The homogenate was centrifuged at 755×g for 30 min at 4° C. and aliquots of the supernatant were stored at or below −70° C. until metabolism experiments were conducted. Prior to storing the homogenates an aliquot was removed for determination of protein concentrations by calculating the 260 nm absorbance using a spectrophotometer. Human recombinant carboxylesterases were purchased from a commercial vendor (BD Gentest™, Bedford, Mass.)
All metabolic stability experiments were performed in triplicate in 96-well plate format. The final incubation mixture contained 1 μM test compound, 0.3 mg/mL corneal protein homogenate or 0.1 mg/mL human recombinant carboxylesterase mixture in a final volume of 0.5 mL 0.1 M potassium phosphate buffer (pH=6.0). The final percentage of solvent in the incubation was less than 1.0% to prevent inhibition of enzymatic activity. Following a pre-incubation at 37° C., test article (i.e. ester linked hybrids) was added to initiate the reaction. At designated time points (typically less than 60 minutes to capture the linear range of metabolite formation), 0.05 mL aliquots were removed from the incubation mixtures using a clean pipet tip and immediately placed in organic solvent to stop any esterase activity.
Hydrolysis of the metabolites was confirmed to be due to esterase activity and not chemical lability. The samples were analyzed by liquid chromatography with mass spectrometry (LC-MS/MS) detection to determine the metabolite concentrations resulting from the metabolism of ester linked hybrids. Internal standards were used to compensate for variability from sample processing, chromatographic elution, mass spectrometer response and ion suppression by matrix components.

Molecule | Rate of formation Metabolite 2 (Gatifloxacin) (metabolite Gatifloxacin) | Rate of formation Metabolite 1 (Prednisolone) (metabolite Prednisolone) | also measured
COc1c(N2CCNC(C)C2)c(F)cc2c(=O)c(C(=O)OCOC(=O)OCC(=O)[C@]3(O)CC[C@@H]4[C@H]5CCC6=CC(=O)C=C[C@@]6(C)C5[C@H](O)C[C@]43C)cn(C3CC3)c12 (relative stereo) [Compound 42, [({2-[(8R,10S,11R,13R,14R,17S)-11,17-dihydroxy-10,13-dimethyl-3-oxo-6,7,8,9,10,11,12,13,14,15,16,17-dodecahydro-3H-cyclopenta[a]phenanthren-17-yl]-2-oxoethoxy}carbonyl)oxy]methyl rel-1-cyclopropyl-6-fluoro-8-methoxy-7-(3-methylpiperazin-1-yl)-4-oxo-1,4-dihydroquinoline-3-carboxylate] | 668 ± 102 nM/min/mg | 633 ± 85 nM/min/mg | –
COc1c(N2C[C@@H]3CCCN[C@@H]3C2)c(F)cc2c(=O)c(C(=O)OC(C)OC(=O)OCC(=O)[C@]3(O)CC[C@@H]4[C@H]5CCC6=CC(=O)C=C[C@@]6(C)C5[C@H](O)C[C@]43C)cn(C3CC3)c12 (relative stereo) [Compound 65, 1-[({2-[(8R,10S,11R,13R,14R,17S)-11,17-dihydroxy-10,13-dimethyl-3-oxo-6,7,8,9,10,11,12,13,14,15,16,17-dodecahydro-3H-cyclopenta[a]phenanthren-17-yl]-2-oxoethoxy}carbonyl)oxy]ethyl rel-1-cyclopropyl-6-fluoro-8-methoxy-7-[(4aS,7aS)-octahydro-6H-pyrrolo[3,4-b]pyridin-6-yl]-4-oxo-1,4-dihydroquinoline-3-carboxylate] | – | 364 ± 27 nM/min/mg | Rate of formation Metabolite 2 (Moxifloxacin) (metabolite Moxifloxacin): 482 ± 72 nM/min/mg
COc1c(N2CCN(C(=O)OCOC(=O)CCC(=O)OCC(=O)[C@@]3(O)[C@@H](C)CC4C5CCC6=CC(=O)C=C[C@]6(C)[C@@]5(F)[C@@H](O)C[C@@]43C)C(C)C2)c(F)cc2c(=O)c(C(=O)O)cn(C3CC3)c12 (relative stereo) [Compound 2, rel-1-cyclopropyl-6-fluoro-7-[4-({[(4-{2-[(9R,10S,11S,13S,16S,17R)-9-fluoro-11,17-dihydroxy-10,13,16-trimethyl-3-oxo-6,7,8,9,10,11,12,13,14,15,16,17-dodecahydro-3H-cyclopenta[a]phenanthren-17-yl]-2-oxoethoxy}-4-oxobutanoyl)oxy]methoxy}carbonyl)-3-methylpiperazin-1-yl]-8-methoxy-4-oxo-1,4-dihydroquinoline-3-carboxylic acid] | 112 ± 4 nM/min/mg | – | Rate of formation Metabolite 1 (Betamethasone): 109 ± 2 nM/min/mg
COc1c(N2CCNC(C)C2)c(F)cc2c(=O)c(C(=O)OC(C)OC(=O)OCC(=O)[C@]3(O)CC[C@@H]4[C@H]5CCC6=CC(=O)C=C[C@@]6(C)C5[C@H](O)C[C@]43C)cn(C3CC3)c12 (relative stereo) [Compound 43, 1-[({2-[(8R,10S,11R,13R,14R,17S)-11,17-dihydroxy-10,13-dimethyl-3-oxo-6,7,8,9,10,11,12,13,14,15,16,17-dodecahydro-3H-cyclopenta[a]phenanthren-17-yl]-2-oxoethoxy}carbonyl)oxy]ethyl rel-1-cyclopropyl-6-fluoro-8-methoxy-7-(3-methylpiperazin-1-yl)-4-oxo-1,4-dihydroquinoline-3-carboxylate] | 419 ± 8 nM/min/mg | 298 ± 13 nM/min/mg | –
COc1c(N2CCNC(C)C2)c(F)cc2c(=O)c(C(=O)OCCCC(=O)OCC(=O)[C@]3(O)CC[C@@H]4[C@H]5CCC6=CC(=O)C=C[C@@]6(C)C5[C@H](O)C[C@]43C)cn(C3CC3)c12 (relative stereo) [Compound 41, 4-{2-[(8R,10S,11R,13R,14R,17S)-11,17-dihydroxy-10,13-dimethyl-3-oxo-6,7,8,9,10,11,12,13,14,15,16,17-dodecahydro-3H-cyclopenta[a]phenanthren-17-yl]-2-oxoethoxy}-4-oxobutyl rel-1-cyclopropyl-6-fluoro-8-methoxy-7-(3-methylpiperazin-1-yl)-4-oxo-1,4-dihydroquinoline-3-carboxylate] | – | – | Rate of formation Metabolite 1 (Gatifloxacin) (metabolite Gatifloxacin): 7.60 ± 2.1 nM/min/mg; Rate of formation Metabolite 2 (Prednisolone) (metabolite Prednisolone): 74.6 ± 4.1 nM/min/mg
COc1c(N2CCNC(C)C2)c(F)cc2c(=O)c(C(=O)OCCCOC(=O)CCC(=O)OCC(=O)[C@]3(O)[C@@H](C)C[C@@H]4[C@H]5CCC6=CC(=O)C=C[C@@]6(C)[C@]5(F)[C@H](O)C[C@]43C)cn(C3CC3)c12 (relative stereo) [Compound 18, 3-({[1-cyclopropyl-6-fluoro-8-methoxy-7-(3-methylpiperazin-1-yl)-4-oxo-1,4-dihydroquinolin-3-yl]carbonyl}oxy)propyl 2-[(8R,9S,10R,11R,13R,14R,16S,17S)-9-fluoro-11,17-dihydroxy-10,13,16-trimethyl-3-oxo-6,7,8,9,10,11,12,13,14,15,16,17-dodecahydro-3H-cyclopenta[a]phenanthren-17-yl]-2-oxoethyl rel-butanedioate] | 2.44 ± 0.87 nM/min/mg | – | Rate of formation Metabolite 1 (Dexamethasone): 59.7 ± 5.15 nM/min/mg
COc1c(N2CCN(C(=O)OCOC(=O)CCC(=O)N[C@@H](C(=O)OCC(=O)[C@]3(O)CCC4C5CCC6=CC(=O)C=C[C@@]6(C)C5[C@H](O)C[C@]43C)C(C)C)C(C)C2)c(F)cc2c(=O)c(C(=O)O)cn(C3CC3)c12 (relative stereo) [Compound 29, rel-1-cyclopropyl-7-{4-[(10R)-14-[(10S,11R,13R,17S)-11,17-dihydroxy-10,13-dimethyl-3-oxo-6,7,8,9,10,11,12,13,14,15,16,17-dodecahydro-3H-cyclopenta[a]phenanthren-17-yl]-5,8,11,14-tetraoxo-10-(propan-2-yl)-2,4,12-trioxa-9-azatetradecan-1-oyl]-3-methylpiperazin-1-yl}-6-fluoro-8-methoxy-4-oxo-1,4-dihydroquinoline-3-carboxylic acid] | 36.5 ± 1.1 nM/min/mg | 17.3 ± 0.1 nM/min/mg | –
rel-1-cyclopropyl-6-fluoro-7-[4-(4-{2-[(8R,9S,10R,11R,13R,14R,16S,17S)-9-fluoro-11,17-dihydroxy-10,13,16-trimethyl-3-oxo-6,7,8,9,10,11,12,13,14,15,16,17-dodecahydro-3H-cyclopenta[a]phenanthren-17-yl]-2-oxoethoxy}-4-oxobutanoyl)-3-methylpiperazin-1-yl]-8-methoxy-4-oxo-1,4-dihydroquinoline-3-carboxylic acid [Compound 10] | 7.71 ± 0.57 nM/min/mg | – | Rate of formation Metabolite 1 (Dexamethasone): 737 ± 28 nM/min/mg
C[C@H]1C[C@H]2[C@@H]3CCC4=CC(=O)C=C[C@]4(C)[C@@]3(F)[C@@H](O)C[C@]2(C)[C@@]1(O)C(=O)COC(=O)CCC(=O)OC[C@@H](NC(=O)C(Cl)Cl)[C@H](O)c1ccc([N+](=O)[O-])cc1 (relative stereo) [Compound 73, (2R,3R)-2-[(dichloroacetyl)amino]-3-hydroxy-3-(4-nitrophenyl)propyl 2-[(8S,9R,10S,11S,13S,14S,16S,17R)-9-fluoro-11,17-dihydroxy-10,13,16-trimethyl-3-oxo-6,7,8,9,10,11,12,13,14,15,16,17-dodecahydro-3H-cyclopenta[a]phenanthren-17-yl]-2-oxoethyl rel-butanedioate] | – | – | Rate of formation Metabolite 1 (Betamethasone): 1440 ± 120 nM/min/mg; Rate of formation Metabolite 2 (Chloramphenicol) (metabolite Chloramphenicol): 107 ± 13 nM/min/mg
